For the assay, the system named is cancer cells. The assay can be described thus: MTS assay: inhibition of cell growth (formazan absorbance at 492 nm after 72 hours with test compound). It is filed as cell-based. As to conditions: inhibition class. The method in brief: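 DMEM with 1% FBS; cells seeded at 3000/well and grown 18 h at 37 °C, then exposed to compound for 72 h and to MTS/PMS for 4 h. IC50 is the concentration giving a 50% absorbance drop; grades are % inhibition bands.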
(In general: Tetrazolium assays rely on reduction of a dye to a coloured formazan, in cell work by metabolically active cells.)

The mark [1] stands for this setting: Homo sapiens, DLD-1 cells, read-out: DLD-1, MTS 72 hours at 10 uM.
[2] abbreviates: Homo sapiens, KATO III cells, read-out: KATO III, MTS 72 hours at 10 uM.
Setting [3] is: Homo sapiens, MDA-MB-231 cells, read-out: MDA-MB-231, MTS 72 hours at 10 uM.
[4] abbreviates: Homo sapiens, NCI-H1299 cells, read-out: NCI-H1299, MTS 72 hours at 10 uM.
Setting [5] is: Homo sapiens, PC-3 cells, read-out: PC-3, MTS 72 hours at 10 uM.
Where [6] appears, read: PACA-2 cells, read-out: PACA-2, MTS 72 hours at 10 uM.

Like-named read-outs stand apart in the source and are kept apart here.

As for `CCOC(=O)C1CN(Cc2ccccc2)c2nc(SC)nc3[nH]nc1c23` (stereo not drawn) [Compound 222, ethyl 6-benzyl-4-(methylsulfanyl)-2,6,7,8-tetrahydro-1,2,3,5,6-pentaazaacenaphthylene-8-carboxylate], the inhibition at 10 µM runs as follows: under setting [1], under 50%; under setting [2], under 50%; under setting [3], under 50%; under setting [4], under 50%; under setting [5], under 50%; under setting [6], under 50%.

With `COc1ccc(CN2CCc3n[nH]c4nc(NCc5ccc(Cl)cc5)nc2c34)cc1` [Compound 117, N-(4-chlorobenzyl)-6-(4-methoxybenzyl)-2,6,7,8-tetrahydro-1,2,3,5,6-pentaazaacenaphthylen-4-amine], the inhibition at 10 µM was 50 to 79% under setting [1]; under 50% under setting [2]; 50 to 79% under setting [3]; 50 to 79% under setting [4]; under 50% under setting [5]; under 50% under setting [6].

As for `c1ccc(CN2CCc3n[nH]c4nc(NCc5ccc(Oc6ccccc6)cc5)nc2c34)cc1` [Compound 40], the inhibition at 10 µM is under 50% under setting [1]; 50 to 79% under setting [2]; under 50% under setting [3]; 50 to 79% under setting [4]; under 50% under setting [5]; 50 to 79% under setting [6].

Turning to `O=C(c1ccco1)N1CCN(c2nc3c4c(n[nH]c4n2)CCN3Cc2ccccc2)CC1` [Compound 53, 6-benzyl-4-[4-(2-furoyl)piperazin-1-yl]-2,6,7,8-tetrahydro-1,2,3,5,6-pentaazaacenaphthylene], the inhibition at 10 µM is under 50% under setting [1]; under 50% under setting [2]; 50 to 79% under setting [3]; under 50% under setting [4]; under 50% under setting [5]; under 50% under setting [6].

Take `CSc1nc2c3c(nn(C)c3n1)CCN2Cc1ccccc1` [Compound 171, 6-benzyl-2-methyl-4-(methylsulfanyl)-2,6,7,8-tetrahydro-1,2,3,5,6-pentaazaacenaphthylene]: the inhibition at 10 µM is over 79% under setting [1]; over 79% under setting [2]; over 79% under setting [3]; 50 to 79% under setting [4]; over 79% under setting [5]; over 79% under setting [6].

Consider `c1ccc(CN2CCc3n[nH]c4nc(N5CCN(Cc6ccncc6)CC5)nc2c34)cc1` [Compound 92, 6-benzyl-4-[4-(pyridin-4-ylmethyl)piperazin-1-yl]-2,6,7,8-tetrahydro-1,2,3,5,6-pentaazaacenaphthylene], for which the inhibition at 10 µM by setting is: under setting [1], under 50%; under setting [2], under 50%; under setting [3], under 50%; under setting [4], under 50%; under setting [5], under 50%; under setting [6], under 50%.

For the compound `O=C(NCc1ccccc1)C1CN(Cc2ccccc2)c2nc(NCc3ccccc3Cl)nc3[nH]nc1c23` (stereo not drawn) [Compound 229, N,6-dibenzyl-4-[(2-chlorobenzyl)amino]-2,6,7,8-tetrahydro-1,2,3,5,6-pentaazaacenaphthylene-8-carboxamide], the inhibition at 10 µM is, setting by setting: under setting [1], under 50%; under setting [2], under 50%; under setting [3], under 50%; under setting [4], under 50%; under setting [5], 50 to 79%; under setting [6], under 50%.

For `c1ccc(CN2CCc3n[nH]c4nc(NCC5CCCCC5)nc2c34)cc1` [Compound 55, 6-benzyl-N-(cyclohexylmethyl)-2,6,7,8-tetrahydro-1,2,3,5,6-pentaazaacenaphthylen-4-amine], the inhibition at 10 µM runs as follows: under setting [1], over 79%; under setting [2], over 79%; under setting [3], over 79%; under setting [4], 50 to 79%; under setting [5], under 50%; under setting [6], under 50%.

Regarding `c1ccc(CN2CCc3n[nH]c4nc(N5CCN(c6ccccc6)CC5)nc2c34)cc1` [Compound 44, 6-benzyl-4-(4-phenylpiperazin-1-yl)-2,6,7,8-tetrahydro-1,2,3,5,6-pentaazaacenaphthylene], the inhibition at 10 µM under setting [1] is under 50%; the inhibition at 10 µM under setting [2] is under 50%; the inhibition at 10 µM under setting [3] is under 50%; the inhibition at 10 µM under setting [4] was under 50%; the inhibition at 10 µM under setting [5] is under 50%; the inhibition at 10 µM under setting [6] was under 50%.

On to `c1ccc(CN2CCN(CCNc3nc4c5c(n[nH]c5n3)CCN4Cc3ccccc3)CC2)cc1` [Compound 33, 6-benzyl-N-[2-(4-benzylpiperazin-1-yl)ethyl]-2,6,7,8-tetrahydro-1,2,3,5,6-pentaazaacenaphthylen-4-amine], for which the inhibition at 10 µM runs as follows: under setting [1], under 50%; under setting [2], under 50%; under setting [3], under 50%; under setting [4], under 50%; under setting [5], under 50%; under setting [6], under 50%.

`c1ccc(OCCNc2nc3c4c(n[nH]c4n2)CCN3c2ccccc2)cc1` [Compound 212, N-(4-phenoxyethyl)-6-phenyl-2,6,7,8-tetrahydro-1,2,3,5,6-pentaazaacenaphthylen-4-amine]: the inhibition at 10 µM under setting [1] was under 50%; the inhibition at 10 µM under setting [2] was under 50%; the inhibition at 10 µM under setting [3] was under 50%; the inhibition at 10 µM under setting [4] is under 50%; the inhibition at 10 µM under setting [5] was under 50%; the inhibition at 10 µM under setting [6] was under 50%.

For the compound `c1ccc(CN2CCc3n[nH]c4nc(N5CCN6CCCC6C5)nc2c34)cc1` (stereo not drawn) [Compound 42, 6-benzyl-4-(hexahydropyrrolo[1,2-a]pyrazin-2(1H)-yl)-2,6,7,8-tetrahydro-1,2,3,5,6-pentaazaacenaphthylene], the inhibition at 10 µM under setting [1] is under 50%; the inhibition at 10 µM under setting [2] is under 50%; the inhibition at 10 µM under setting [3] was under 50%; the inhibition at 10 µM under setting [4] is under 50%; the inhibition at 10 µM under setting [5] was under 50%; the inhibition at 10 µM under setting [6] is under 50%.

Take `FC(F)(F)c1cccc(N2CCN(c3nc4c5c(n[nH]c5n3)CCN4Cc3ccccc3)CC2)c1` [Compound 38, 6-benzyl-4-{4-[3-(trifluoromethyl)phenyl]piperazin-1-yl}-2,6,7,8-tetrahydro-1,2,3,5,6-pentaazaacenaphthylene]: the inhibition at 10 µM under setting [1] was under 50%; the inhibition at 10 µM under setting [2] was under 50%; the inhibition at 10 µM under setting [3] was under 50%; the inhibition at 10 µM under setting [4] was under 50%; the inhibition at 10 µM under setting [5] was under 50%; the inhibition at 10 µM under setting [6] was under 50%.

As for `c1ccc(CN2CCc3n[nH]c4nc(NCC5CCCCCC5)nc2c34)cc1` [Compound 67, 6-benzyl-N-(cycloheptylmethyl)-2,6,7,8-tetrahydro-1,2,3,5,6-pentaazaacenaphthylen-4-amine], the inhibition at 10 µM is, setting by setting: under setting [1], under 50%; under setting [2], under 50%; under setting [3], under 50%; under setting [4], 50 to 79%; under setting [5], under 50%; under setting [6], 50 to 79%.

Consider `O=C(NCc1ccccc1)C1CN(Cc2ccccc2)c2nc(NCCc3c[nH]c4ccccc34)nc3[nH]nc1c23` (stereo not drawn) [Compound 226, N,6-dibenzyl-4-{[2-(1H-indol-3-yl)ethyl]amino}-2,6,7,8-tetrahydro-1,2,3,5,6-pentaazaacenaphthylene-8-carboxamide], for which the inhibition at 10 µM was over 79% under setting [1]; over 79% under setting [2]; over 79% under setting [3]; over 79% under setting [4]; over 79% under setting [5]; over 79% under setting [6].

On to `O=C(NCc1ccc(Cl)cc1)C1CN(Cc2ccccc2)c2nc(NCc3ccccc3)nc3[nH]nc1c23` (stereo not drawn) [Compound 238, 6-benzyl-4-(benzylamino)-N-(4-chlorobenzyl)-2,6,7,8-tetrahydro-1,2,3,5,6-pentaazaacenaphthylene-8-carboxamide], for which the inhibition at 10 µM is over 79% under setting [1]; over 79% under setting [2]; over 79% under setting [3]; over 79% under setting [4]; over 79% under setting [5]; 50 to 79% under setting [6].

`COc1cc(CNc2nc3c4c(n[nH]c4n2)CCN3Cc2ccccc2)cc(OC)c1OC` [Compound 50, 6-benzyl-N-(3,4,5-trimethoxybenzyl)-2,6,7,8-tetrahydro-1,2,3,5,6-pentaazaacenaphthylen-4-amine]: the inhibition at 10 µM runs as follows: under setting [1], under 50%; under setting [2], under 50%; under setting [3], under 50%; under setting [4], under 50%; under setting [5], under 50%; under setting [6], under 50%.

Turning to `O[C@H](CNc1nc2c3c(n[nH]c3n1)CCN2Cc1ccccc1)c1ccccc1` [Compound 72, (1S)-2-[(6-benzyl-2,6,7,8-tetrahydro-1,2,3,5,6-pentaazaacenaphthylen-4-yl)amino]-1-phenylethanol], the inhibition at 10 µM under setting [1] was under 50%; the inhibition at 10 µM under setting [2] was under 50%; the inhibition at 10 µM under setting [3] is under 50%; the inhibition at 10 µM under setting [4] was under 50%; the inhibition at 10 µM under setting [5] is under 50%; the inhibition at 10 µM under setting [6] is under 50%.

On to `COc1ccc(CN2CCc3n[nH]c4nc(NCc5cccnc5)nc2c34)cc1` [Compound 102, 6-(4-methoxybenzyl)-N-(pyridin-3-ylmethyl)-2,6,7,8-tetrahydro-1,2,3,5,6-pentaazaacenaphthylen-4-amine], for which the inhibition at 10 µM runs as follows: under setting [1], over 79%; under setting [2], over 79%; under setting [3], over 79%; under setting [4], over 79%; under setting [5], over 79%; under setting [6], over 79%.

The values are drawn from patent US8343983B2, “Substituted pyrazolo-pyrimidine compounds” (ArQule, Inc., priority 2009, dated 2013).
